In patent US20250057969A1, “CONJUGATES COMPRISING CLEAVABLE LINKERS” (priority 2023, published 2025):
Numbered stars: 1 amine (or outer) side, 2 acyl side, 3 side chain; on linkers, the order of the positions; unused ones are H or OH. Square brackets hold non-standard residues; d marks the D form. Peptide text beside a SMILES is read from it. * marks the point of attachment. X1 = O=C(O)[C@H]1O[C@@H](Oc2ccc(COC(=O)[*:2])cc2N[*:1])[C@H](O)[C@@H](O)[C@@H]1O; CH3O(CH2CH2O)11CH2CH2CO = COCCOCCOCCOCCOCCOCCOCCOCCOCCOCCOCCOCCC(=O)*; Dolaproine = CO[C@@H]([C@@H]1CCCN1)[C@@H](C)C(=O)O; Hexanoyl(6-maleimido) = O=C1C=CC(=O)N1CCCCCC(=O)*; Propanoyl(3-maleimido) = O=C1C=CC(=O)N1CCC(=O)*; Dil = CC[C@H](C)[C@H](NC)[C@@H](CC(=O)O)OC; PABC = O=C(OCc1ccc(N[*:1])cc1)[*:2]; X2 = C[C@@H](N*)[C@@H](O)c1ccccc1; Cit = NC(=O)NCCC[C@H](N)C(=O)O; NMeV = CN[C@H](C(=O)O)C(C)C; βAla = NCCC(=O)O

Columns and labels:
Format in all cases: biochemical
[1] = target: T1, Human neutrophil elastase (Homo sapiens, UniProt P08246); test: Linker-Payload enzymatic cleavage with human neutrophil elastase; conditions: 0.67 μM enzyme, 67 μM Linker-Payload, pH 7.4, 37° C., 24 hours
T1 sequence (P08246 30-267): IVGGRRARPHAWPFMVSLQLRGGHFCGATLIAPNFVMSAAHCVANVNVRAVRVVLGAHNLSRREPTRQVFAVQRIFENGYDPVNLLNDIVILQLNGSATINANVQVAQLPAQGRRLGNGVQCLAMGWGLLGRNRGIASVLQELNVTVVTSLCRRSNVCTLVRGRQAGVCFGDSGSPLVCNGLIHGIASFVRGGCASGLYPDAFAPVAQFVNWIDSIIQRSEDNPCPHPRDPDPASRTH
Description: 0.67 μM Human neutrophil elastase was added to 67 μM Linker-Payload (1:100) in Tris Buffered Saline, pH 7.4. The mixture was incubated at 37° C. for a duration of 24 hours with intermediate timepoints collected and diluted 1:1 with buffer containing acetonitrile, water and formic acid. The sample was measured by reverse-phase HPLC with data quantified against a standard curve.

β-glucuronidase = target: T2, β-glucuronidase (Homo sapiens, UniProt P08236); test: Linker-Payload enzymatic cleavage with β-glucuronidase; conditions: 4 nM enzyme, 40 μM Linker-Payload, pH 5.0, 37° C., 24 hours
T2 sequence (P08236 23-651): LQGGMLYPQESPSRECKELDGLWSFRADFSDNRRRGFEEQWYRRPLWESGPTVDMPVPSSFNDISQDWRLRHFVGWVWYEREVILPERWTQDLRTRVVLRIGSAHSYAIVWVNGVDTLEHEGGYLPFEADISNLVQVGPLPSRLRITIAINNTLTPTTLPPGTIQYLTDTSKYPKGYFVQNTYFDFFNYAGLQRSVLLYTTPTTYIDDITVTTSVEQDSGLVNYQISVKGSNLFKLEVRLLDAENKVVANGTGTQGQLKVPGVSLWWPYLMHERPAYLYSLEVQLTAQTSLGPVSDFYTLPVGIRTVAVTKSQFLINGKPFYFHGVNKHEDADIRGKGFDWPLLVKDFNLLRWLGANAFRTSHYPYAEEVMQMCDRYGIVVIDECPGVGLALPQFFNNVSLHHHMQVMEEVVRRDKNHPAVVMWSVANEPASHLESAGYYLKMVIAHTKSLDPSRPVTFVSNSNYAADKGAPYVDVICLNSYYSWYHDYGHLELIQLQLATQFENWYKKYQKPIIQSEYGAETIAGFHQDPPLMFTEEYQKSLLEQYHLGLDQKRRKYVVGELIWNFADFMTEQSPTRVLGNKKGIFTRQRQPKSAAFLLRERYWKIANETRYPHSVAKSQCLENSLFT
Description: 4 nM β-glucuronidase was added to 40 μM Linker-Payload (1:10,000) in 50 mM sodium acetate, pH 5.0. The mixture was incubated at 37° C. for a duration of 24 hours with intermediate timepoints collected and diluted 1:1 with buffer containing acetonitrile, water and formic acid. The sample was measured by reverse-phase HPLC with data quantified against a standard curve.

Cathepsin B = Cathepsin B (Homo sapiens, UniProt P07858); test: Linker-Payload enzymatic cleavage with Cathepsin B; conditions: 0.14 μM enzyme, 70 μM Linker-Payload, pH 5.0, 37° C., 24 hours
Description: 0.14 μM Cathepsin B was added to 70 μM Linker-Payload (1:500) in 50 mM sodium acetate, 1 mM DTT, pH 5.0. The mixture was incubated at 37° C. for a duration of 24 hours with intermediate timepoints collected and diluted 1:1 with buffer containing acetonitrile, water and formic acid. The sample was measured by reverse-phase HPLC with data quantified against a standard curve.

Structure (SMILES)	cleavage in the presence of human neutrophil elastase (FIG. 1C) [1]	cleavage in the presence of human neutrophil elastase (FIG. 1D) [1]	cleavage in the presence of β-glucuronidase (FIG. 1A) (β-glucuronidase)	cleavage rate in the presence of β-glucuronidase relative to LP7 and LP8 (FIG. 1E) (β-glucuronidase)	cleavage in the presence of cathepsin B (FIG. 1B) (Cathepsin B)
CC[C@H](C)[C@@H]([C@@H](CC(=O)N1CCC[C@H]1[C@H](OC)[C@@H](C)C(=O)N[C@H](C)[C@@H](O)c1ccccc1)OC)N(C)C(=O)[C@@H](NC(=O)[C@H](C(C)C)N(C)C(=O)OCc1ccc(NC(=O)[C@H](CCCNC(N)=O)NC(=O)[C@@H](NC(=O)CCCCCN2C(=O)C=CC2=O)C(C)C)cc1)C(C)C [LP1, maleimidocaproyl-valine-citrulline-p-amrninobenzoyloxycajrbonyl-MMAE, reference compound] ({Hexanoyl(6-maleimido)}-V[Cit][PABC][NMeV]V[Dil][Dolaproine]-X2)	underwent more rapid cleavage				
CC[C@H](C)[C@@H]([C@@H](CC(=O)N1CCC[C@H]1[C@H](OC)[C@@H](C)C(=O)N[C@H](C)[C@@H](O)c1ccccc1)OC)N(C)C(=O)[C@@H](NC(=O)[C@H](C(C)C)N(C)C(=O)OCc1ccc(O[C@@H]2O[C@H](C(=O)O)[C@@H](O)[C@H](O)[C@H]2O)c(CNC(=O)CCNC(=O)[C@H](CCCCNC(=O)CCOCCOCCOCCOCCOCCOCCOCCOCCOCCOCCOCCOC)NC(=O)CCN2C(=O)C=CC2=O)c1)C(C)C [LP7, reference compound]		did not undergo rapid cleavage			
CC[C@H](C)[C@@H]([C@@H](CC(=O)N1CCC[C@H]1[C@H](OC)[C@@H](C)C(=O)N[C@H](C)[C@@H](O)c1ccccc1)OC)N(C)C(=O)[C@@H](NC(=O)[C@H](C(C)C)N(C)C(=O)OCc1ccc(O[C@@H]2O[C@H](C(=O)O)[C@@H](O)[C@H](O)[C@H]2O)c(NC(=O)CCNC(=O)[C@H](CCCCNC(=O)CCOCCOCCOCCOCCOCCOCCOCCOCCOCCOCCOCCOC)NC(=O)CCN2C(=O)C=CC2=O)c1)C(C)C [LP8, reference compound] ({Propanoyl(3-maleimido)}-K(CH3O(CH2CH2O)11CH2CH2CO)[βAla][X1][NMeV]V[Dil][Dolaproine]-X2)		did not undergo rapid cleavage			
CC[C@H](C)[C@@H]([C@@H](CC(=O)N1CCC[C@H]1[C@H](OC)[C@@H](C)C(=O)N[C@H](C)[C@@H](O)c1ccccc1)OC)N(C)C(=O)[C@@H](NC(=O)[C@H](C(C)C)N(C)C(=O)OCc1ccc(O[C@@H]2O[C@H](C(=O)O)[C@@H](O)[C@H](O)[C@H]2O)c(CNC(=O)CCNC(=O)COC2(CNC(=O)CCN3C(=O)C=CC3=O)CN(C(=O)CCOCCOCCOCCOCCOCCOCCOCCOCCOCCOCCOCCOC)C2)c1)C(C)C [LP2]	did not undergo rapid cleavage	did not undergo rapid cleavage	underwent significant cleavage	underwent slower cleavage than both LP7 (Reference) and LP8 (Reference)	neither LP2 nor LP3 underwent rapid cleavage
CC[C@H](C)[C@@H]([C@@H](CC(=O)N1CCC[C@H]1[C@H](OC)[C@@H](C)C(=O)N[C@H](C)[C@@H](O)c1ccccc1)OC)N(C)C(=O)[C@@H](NC(=O)[C@H](C(C)C)N(C)C(=O)OCc1ccc(O[C@@H]2O[C@H](C(=O)O)[C@@H](O)[C@H](O)[C@H]2O)c(CNC(=O)COC2(CNC(=O)CCN3C(=O)C=CC3=O)CN(C(=O)CCOCCOCCOCCOCCOCCOCCOCCOCCOCCOCCOCCOC)C2)c1)C(C)C [LP3]	did not undergo rapid cleavage		underwent significant cleavage		neither LP2 nor LP3 underwent rapid cleavage
